Series [1] has as its target T1, ATP-binding cassette sub-family C member 2 (Rattus norvegicus, UniProt Q63120). The series can be described thus: TP_TRANSPORTER: biliary excretion in SD rat. In kind it is functional, organism-based, Sprague-Dawley, Bile. The following applies: in vivo.
In series [2] the target is T1, ATP-binding cassette sub-family C member 2. The series can be described thus: TP_TRANSPORTER: biliary excretion in EHBR rat. The following applies: in vivo. It counts as functional, organism-based, Bile.

T1 sequence (Q63120 whole entry): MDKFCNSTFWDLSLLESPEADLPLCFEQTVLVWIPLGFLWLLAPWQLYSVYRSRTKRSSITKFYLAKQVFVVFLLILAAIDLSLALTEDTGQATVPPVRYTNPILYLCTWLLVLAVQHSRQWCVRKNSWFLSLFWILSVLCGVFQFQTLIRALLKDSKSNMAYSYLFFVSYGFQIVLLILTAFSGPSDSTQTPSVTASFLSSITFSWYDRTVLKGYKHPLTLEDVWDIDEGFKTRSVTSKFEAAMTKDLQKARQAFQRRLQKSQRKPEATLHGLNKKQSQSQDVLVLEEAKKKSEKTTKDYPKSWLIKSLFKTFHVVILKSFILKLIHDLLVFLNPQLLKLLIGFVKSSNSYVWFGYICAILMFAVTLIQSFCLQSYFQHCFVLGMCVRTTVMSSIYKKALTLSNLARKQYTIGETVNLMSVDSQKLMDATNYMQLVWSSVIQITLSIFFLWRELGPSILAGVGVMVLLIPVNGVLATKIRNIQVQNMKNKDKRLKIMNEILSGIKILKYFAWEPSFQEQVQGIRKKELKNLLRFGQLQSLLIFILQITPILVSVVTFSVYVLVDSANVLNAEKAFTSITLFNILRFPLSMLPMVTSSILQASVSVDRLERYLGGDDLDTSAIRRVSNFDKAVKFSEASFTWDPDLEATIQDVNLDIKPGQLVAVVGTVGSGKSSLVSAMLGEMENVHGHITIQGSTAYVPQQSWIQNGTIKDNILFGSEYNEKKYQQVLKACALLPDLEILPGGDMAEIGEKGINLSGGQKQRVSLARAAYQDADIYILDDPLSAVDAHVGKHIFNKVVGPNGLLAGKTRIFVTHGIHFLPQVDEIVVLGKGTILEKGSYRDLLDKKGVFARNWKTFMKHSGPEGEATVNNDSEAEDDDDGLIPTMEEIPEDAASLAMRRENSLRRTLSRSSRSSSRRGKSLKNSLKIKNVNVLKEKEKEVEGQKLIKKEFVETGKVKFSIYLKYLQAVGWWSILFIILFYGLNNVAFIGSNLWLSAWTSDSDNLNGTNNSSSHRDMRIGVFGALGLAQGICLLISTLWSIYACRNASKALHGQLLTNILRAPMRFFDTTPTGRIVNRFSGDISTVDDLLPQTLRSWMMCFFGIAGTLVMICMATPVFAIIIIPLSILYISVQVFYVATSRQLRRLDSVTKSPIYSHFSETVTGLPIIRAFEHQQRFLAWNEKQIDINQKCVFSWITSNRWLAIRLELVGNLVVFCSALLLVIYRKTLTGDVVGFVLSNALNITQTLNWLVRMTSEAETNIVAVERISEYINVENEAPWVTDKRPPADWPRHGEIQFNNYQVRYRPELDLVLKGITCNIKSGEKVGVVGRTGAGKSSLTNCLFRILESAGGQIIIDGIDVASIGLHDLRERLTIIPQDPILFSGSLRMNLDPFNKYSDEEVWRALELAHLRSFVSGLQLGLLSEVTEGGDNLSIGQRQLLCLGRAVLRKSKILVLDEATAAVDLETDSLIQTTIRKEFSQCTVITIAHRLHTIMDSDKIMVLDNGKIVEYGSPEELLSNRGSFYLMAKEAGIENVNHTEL

In the case of `CS(=O)(=O)O.Cc1c(N2C[C@@H](N)C3(CC3)C2)c(F)c(N)c2c(=O)c(C(=O)O)cn(C3CC3)c12`, the Activity entry in series [1] and in series [2] was “substrate [+]” each time.

The values above are taken from ChEMBL document CHEMBL2073887, “Hepatobiliary transport kinetics of HSR-903, a new quinolone antibacterial agent” (Drug Metab Dispos, 1998).
